In doi:10.1101/2022.09.13.507756v1 (biorxiv, 2022):
Where two headings read alike, the source gives them in different places.

Columns and labels:
AncCDT-5 [1] = conditions: 50 mM Na2HPO4, 25 °C, 100 nM enzyme
AncCDT-5 [2] = conditions: 50 mM Na2HPO4, 25 °C, 100 nM enzyme; prephenate dehydratase reaction

For O=C(O)C(=O)CC1(C(=O)O)C=CC(O)C=C1 (centres unmarked) [prephenate], the Km (AncCDT-5 [1]) was 178 ± 27.1 µM and the Km (AncCDT-5 [2]) was 169 ± 22.9 µM.
